Counter-ions that a name gives are not always drawn. Like-named read-outs stand apart in the source and are kept apart here.
Key:
TACE = TACE (Homo sapiens, UniProt P78536); assay: TACE inhibition (fluorescent peptidyl substrate); format: biochemical; settings: for inhibition at 1 µM: read-out: % Inhibition at 1 uM
Procedure: Using 96-well black microtiter plates, each well receives a solution composed of 10 µL TACE (final concentration 1µg/mL), 70µL Tris buffer, pH 7.4 containing 10% glycerol (final concentration 10 mM), and 10 µL of test compound solution in DMSO (final concentration 1µM, DMSO concentration <1%) and incubated for 10 minutes at room temperature.
The reaction is read (excitation 340 nm, emission 420 nm) for 10 min. and the increase in fluorescence over time is plotted as a linear line. The slope of the line is calculated and represents the reaction rate.
The linearity of the reaction rate is confirmed (r^2 >0.85). The mean (x±sem) of the control rate is calculated and compared for statistical significance (p<0.05) with drug-treated rates using Dunnett's multiple comparison test.

THP-1 cells = assay: THP-1 Soluble Protein Assay (LPS-stimulated; ELISA of TNF-a, TNF-R p75/80, TNF-R p55/60, IL-8); format: cell-based, human; settings: Homo sapiens
Procedure: Each vial of cells are cultured for about two weeks prior to being used for an assay and then are used for only 4 to 6 weeks to screen compounds.
Plates are placed into an incubator set at 5% CO2 and at 37° C. After 4 hours of incubation, 300 ml/well of tissue culture supernatant (TCS) is removed for use in an TNF-a ELISA.
Percent change in each soluble protein evaluated from the "vehicle positive control" was calculated for each compound concentration with the following formula: % Change =(pg/ml (compound) - pg/ml (veh pos control))/(pg/ml (veh pos control) - pg/ml (veh neg control))x 100 [formula]
For the soluble protein (TNF-a, p75/80, p55/60, IL-8) studies under stimulated conditions, the mean pg/ml of duplicate wells were determined and the results expressed as percent change from "vehicle positive control".

[1] = In Vitro Inhibition of TACE, 1 uM
[2] = THP-1, read-out: THP % inhibition @ 3 µM, 3 µM
[3] = THP-1, 3 µM, read-out: THP % Inhibition @ 3µM

TACE, sequence (P78536 215-824): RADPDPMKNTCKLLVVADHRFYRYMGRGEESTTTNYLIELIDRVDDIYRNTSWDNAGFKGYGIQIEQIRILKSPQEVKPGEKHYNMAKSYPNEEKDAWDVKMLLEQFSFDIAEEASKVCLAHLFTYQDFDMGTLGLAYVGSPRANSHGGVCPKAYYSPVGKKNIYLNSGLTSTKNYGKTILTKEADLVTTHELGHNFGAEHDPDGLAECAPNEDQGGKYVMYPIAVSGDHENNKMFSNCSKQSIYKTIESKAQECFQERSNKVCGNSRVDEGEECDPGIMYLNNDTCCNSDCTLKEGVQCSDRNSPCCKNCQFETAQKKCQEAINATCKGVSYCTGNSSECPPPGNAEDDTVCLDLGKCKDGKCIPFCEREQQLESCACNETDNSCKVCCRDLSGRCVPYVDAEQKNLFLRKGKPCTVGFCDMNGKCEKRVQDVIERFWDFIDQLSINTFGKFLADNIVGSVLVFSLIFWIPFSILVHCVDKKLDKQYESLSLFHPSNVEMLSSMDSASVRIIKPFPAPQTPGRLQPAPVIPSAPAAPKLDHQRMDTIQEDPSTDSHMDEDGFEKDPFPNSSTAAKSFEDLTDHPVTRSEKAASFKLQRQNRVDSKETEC

Row | SMILES | inhibition at 1 µM (TACE; [1]) [%] | inhibition at 3 µM (THP-1 cells; [2]) [%] | further results
1 | CC#CCOc1ccc(S(=O)(=O)N[C@@H](CCC(=O)O)C(=O)NO)cc1 [Example 86] | 37.5 | – | –
2 | CC#CCOc1ccc(S(=O)(=O)N[C@@H](Cc2c[nH]c3ccccc23)C(=O)NO)cc1 [Example 101] | 30.2 | – | –
3 | CC#CCOc1ccc(S(=O)(=O)N[C@H](C(=O)NO)c2ccccc2)cc1 [Example 95] | 98.6 | – | –
4 | CC#CCOc1ccc(S(=O)(=O)N[C@@H](C(=O)NO)C2CCCCC2)cc1 [Example 78] | 101 | – | –
5 | CC#CCOc1ccc(S(=O)(=O)N[C@H](Cc2ccccc2)C(=O)NO)cc1 [Example 81] | 106 | – | –
6 | CC#CCOc1ccc(S(=O)(=O)N[C@H](CC(N)=O)C(=O)NO)cc1 [Example 75] | 55.8 | – | –
7 | CC#CCOc1ccc(S(=O)(=O)N[C@@H](CC(N)=O)C(=O)NO)cc1 [Example 66] | 45.6 | – | –
8 | CC#CCOc1ccc(S(=O)(=O)N[C@H](CCCNC(=O)Oc2ccc(OC)cc2)C(=O)NO)cc1 [Example 372, 4-Methoxyphenyl (4R)-4-({[4-(but-2-ynyloxy)phenyl]sulfonyl}amino)-5-(hydroxyamino)-5-oxopentylcarbamate] | – | – | IC50 (TACE): 8.4 nM
9 | CC#CCOc1ccc(S(=O)(=O)N[C@@H](Cc2ccccc2)C(=O)NO)cc1 [Example 94] | 38.2 | – | –
10 | CC#CCOc1ccc(S(=O)(=O)N[C@@H](CC(=O)OC2CCCCC2)C(=O)NO)cc1 [Example 68] | 70.4 | – | –
11 | CC#CCOc1ccc(S(=O)(=O)N[C@@H](CSCNC(C)=O)C(=O)NO)cc1 [Example 96] | 22 | – | –
12 | CC#CCOc1ccc(S(=O)(=O)N[C@H](C(=O)NO)C(C)C)cc1 [Example 104] | – | – | inhibition at 1 µM (TACE): 38.5%
13 | CC#CCOc1ccc(S(=O)(=O)N2CCC[C@@H]2C(=O)NO)cc1 [Example 82] | 98.4 | – | –
14 | CC#CCOc1ccc(S(=O)(=O)N[C@@H](Cc2ccc(OCc3ccccc3)cc2)C(=O)NO)cc1 [Example 103] | 52.8 | – | –
15 | CC#CCOc1ccc(S(=O)(=O)N[C@H](C(=O)NO)C2CCCCC2)cc1 [Example 72] | 57.4 | – | –
16 | CC#CCOc1ccc(S(=O)(=O)N[C@H](Cc2ccc(O)cc2)C(=O)NO)cc1 [Example 84] | 101 | – | –
17 | CC#CCOc1ccc(S(=O)(=O)N[C@H](CCSC)C(=O)NO)cc1 [Example 80] | 105 | – | –
18 | CC#CCOc1ccc(S(=O)(=O)N[C@H](CC2CCCCC2)C(=O)NO)cc1 [Example 77] | 105 | – | –
19 | CC#CCOc1ccc(S(=O)(=O)N[C@H](C(=O)NO)[C@@H](C)OCc2ccccc2)cc1 [Example 99] | 28.5 | – | –
20 | CC#CCOc1ccc(S(=O)(=O)N[C@H](CCCN)C(=O)NO)cc1 [Example 76] | 29.7 | – | –
21 | CC#CCOc1ccc(S(=O)(=O)N[C@@H](CCN)C(=O)NO)cc1 [Example 70] | 21.1 | – | –
22 | CC#CCOc1ccc(S(=O)(=O)N(C)C(C(=O)NO)c2ccc(OCCNC(=O)OC(C)(C)C)cc2)cc1 (centres unmarked) [Example 180, tert-Butyl 2-{4-[1-[{[4-(2-butynyloxy)phenyl]sulfonyl}(methyl)amino]-2-(hydroxyamino)-2-oxoethyl]phenoxy}ethylcarbamate] | – | 89 | –
23 | CCCCC#CCOc1ccc(S(=O)(=O)N2CCSC(C)(C)C2C(=O)NO)cc1 (centres unmarked) [Example 40, 4-(4-Hept-2-ynyloxy-benzenesulfonyl)-2,2-dimethyl-thiomorpholine-3-carboxylic acid hydroxyamide] | – | 82 | –
24 | CC#CCOc1ccc(S(=O)(=O)N2CCSCC2C(=O)NO)cc1 (centres unmarked) [Example 239] | – | 84 | –

Row | SMILES | inhibition at 1 µM (TACE; [1]) [%] | inhibition at 3 µM (THP-1 cells; [2]) [%] | further results
25 | CC#CCOc1ccc(S(=O)(=O)N2CCN(C(=O)CC)CC2C(=O)NO)cc1 (centres unmarked) [Example 225, 1-(4-But-2-ynyloxy-benzenesulfonyl)-4-propionyl-piperazine-2-carboxylic acid hydroxyamide] | – | 76 | –
26 | CC1(C)SCCN(S(=O)(=O)c2ccc(OCC#CCCOC3CCCCO3)cc2)C1C(=O)NO (centres unmarked) [Example 243, N-Hydroxy-2,2-dimethyl-4-[(4-{[5-(tetrahydro-2H-pyran-2-yloxy)-2-pentynyl]oxy}phenyl)sulfonyl]-3-thiomorpholine carboxamide] | – | 52 | –
27 | CC#CCOc1ccc(S(=O)(=O)N2CCSC3(CCN(Cc4ccccc4)CC3)C2C(=O)NO)cc1 (centres unmarked) [Example 241, 9-Benzyl-4-{[4-(2-butynyloxy)phenyl]sulfonyl}-N-hydroxy-1-thia-4,9-diazaspiro[5.5]undecane-5-carboxamide] | – | 94 | –
28 | CC#CCOc1ccc(S(=O)(=O)N2CCN(C)CC2C(=O)NO)cc1 (centres unmarked) [Example 56, 1-(4-But-2-ynyloxy-benzenesulfonyl)-4-methyl-piperazine-2-carboxylic acid hydroxyamide hydrochloride] | – | 32 | –
29 | CC#CCOc1ccc(S(=O)(=O)N[C@@H](C(=O)NO)c2ccc(OCCNC(=O)OC(C)(C)C)cc2)cc1 [Example 199, tert-Butyl 2-{4-[(1R)-1-({[4-(2-butynyloxy)phenyl]sulfonyl}amino)-2-(hydroxyamino)-2-oxoethyl]phenoxy}ethylcarbamate] | – | 84 | –
30 | CC#CCOc1ccc(S(=O)(=O)N(C)C(CCCSc2ccc(Cl)cc2)C(=O)NO)cc1 (centres unmarked) [Example 213, 2-[{[4-(2-Butynyloxy)phenyl]sulfonyl}(methyl)amino]-5-[(4-chlorophenyl)sulfanyl]-N-hydroxypentanamide] | – | 87 | –
31 | CC#CCOc1ccc(S(=O)(=O)NC(C(=O)NO)c2ccc(OCCN(C)C)cc2)cc1 (centres unmarked) [Example 207, 2-({[4-(2-Butynyloxy)phenyl]sulfonyl}amino){4-[2-(dimethylamino)ethoxy]phenyl}-N-hydroxyacetamide] | – | 51 | –
32 | CC#CCOc1ccc(S(=O)(=O)N(C)C(C(=O)NO)C(C)(C)SCc2ccccc2)cc1 (centres unmarked) [Example 153, 2-[(4-But-2-ynyloxy-benenesulfonyl)-methyl-amino]-N-hydroxy-3-methyl-3-benzylsulfanyl-butyramide] | – | 46 | –
33 | CC#CCOc1ccc(S(=O)(=O)N2CCN(C(=O)C(C)(CO)CO)CC2C(=O)NO)cc1 (centres unmarked) [Example 232, 1-{[4-(2-Butynyloxy)phenyl]sulfonyl}-N-hydroxy-4-[3-hydroxy-2-(hydroxymethyl)-2-methylpropanoyl]-2-piperazinecarboxamide] | – | 72 | –
34 | CC#CCOc1ccc(S(=O)(=O)N2CCN(C(C)=O)CC2C(=O)NO)cc1 (centres unmarked) [Example 224, 4-Acetyl-1-(4-but-2-ynyloxy-benzenesulfonyl)-piperazine-2-carboxylic acid hydroxyamide] | – | 81 | –
35 | CC#CCOc1ccc(S(=O)(=O)N2C[C@H](CC(=O)NO)SC(C)(C)[C@@H]2C(=O)NO)cc1 [Example 279, (3S,6S)-4-{[4-(2-Butynyloxy)phenyl]sulfonyl}-N-hydroxy-6-[2-(hydroxyamino)-2-oxoethyl]-2,2-dimethyl-3-thiomorpholinecarboxamide] | – | – | inhibition at 3 µM (THP-1 cells; [3]): 87%
36 | CC#CCOc1ccc(S(=O)(=O)N(CC(C)C)C(C(=O)NO)C(C)C)cc1 (centres unmarked) [Example 113, 2-[(4-But-2-ynyloxy-benzenesulfonyl)-isobutyl-amino]-N-hydroxy-3-methyl-butyramide] | – | 0 | –
37 | CC(C)(C)OC(=O)NCCCCC#CCOc1ccc(S(=O)(=O)N2CCSC(C)(C)[C@@H]2C(=O)NO)cc1 [Example 252, tert-Butyl 7-[4-({(3S)-3-[(hydroxyamino)carbonyl]-2,2-dimethylthiomorpholinyl}sulfonyl)phenoxy]-5-heptynylcarbamate] | – | 70 | –
38 | CC#CCOc1ccc(S(=O)(=O)N2CCNCC2C(=O)NO)cc1 (centres unmarked) [Example 214, 1-(4-But-2-ynyloxy-benzenesulfonyl)-piperazine-2-carboxylic acidhydroxyamide] | – | 71 | –
39 | CC#CCOc1ccc(S(=O)(=O)N(C)C(C(=O)NO)c2ccc(OCCN(C)C)cc2)cc1 (centres unmarked) [Example 182, 2-[{[4-(2-Butynyloxy)phenyl]sulfonyl}(methyl)amino]-2-{4-[2-(dimethylamino)ethoxy]phenyl}-N-hydroxyacetamide] | – | 92 | –
40 | CC#CCOc1ccc(S(=O)(=O)N(CCCN(CC)CC)C(C(=O)NO)C(C)C)cc1 (centres unmarked) [Example 118, 2-{{[4-(2-Butynyloxy)phenyl]sulfonyl}[3-(diethylamino)propyl]amino}-N-hydroxy-3-methylbutanamide] | – | 77 | –
41 | CC#CCOc1ccc(S(=O)(=O)N(CCC)C(C(=O)NO)C(C)C)cc1 (centres unmarked) [Example 110, 2-[(4-But-2-ynyloxy-benzenesulfonyl)-propyl-amino]-N-hydroxy-3-methyl-butyramide] | – | 47 | –
42 | CC#CCOc1ccc(S(=O)(=O)N2CCCSC[C@@H]2C(=O)NO)cc1 [Example 174] | – | – | inhibition at 3 µM (THP-1 cells; [3]): 80%
43 | CC#CCOc1ccc(S(=O)(=O)N(C)C(C(=O)NO)c2ccc(OCCN3CCCC3)cc2)cc1 (centres unmarked) [Example 183, 2-[{[4-(2-Butynyloxy)phenyl]sulfonyl}(methyl)amino]-N-hydroxy-2-{4-[2-(1-pyrrolidinyl)ethoxy]phenyl}acetamide] | – | 93 | –
44 | CC#CCOc1ccc(S(=O)(=O)N(C)[C@H](CSC)C(=O)NO)cc1 [Example 154] | – | 90 | –
45 | CC#CCOc1ccc(S(=O)(=O)N(C)[C@@H](C(=O)NO)c2ccc(O[C@H]3CCN(C(=O)OC(C)(C)C)C3)cc2)cc1 [Example 189, tert-Butyl (3S)-3-{4-[(1R)-1-[{[4-(2-butynyloxy)phenyl]sulfonyl}(methyl)amino]-2-(hydroxyamino)-2-oxoethyl]phenoxy}-1-pyrrolidinecarboxylate] | – | 92 | –
46 | CC#CCOc1ccc(S(=O)(=O)N(CCCN2CCN(C)CC2)C(C(=O)NO)C(C)C)cc1 (centres unmarked) [Example 120, 2-{{[4-(2-Butynyloxy)phenyl]sulfonyl}[3-(4-methyl-1-piperazinyl)propyl]amino}-N-hydroxy-3-methylbutanamide hydrochloride] | – | 61 | –
47 | CC#CCOc1ccc(S(=O)(=O)N(C)C(C(=O)NO)C(C)(C)SCCN(CC)CC)cc1 (centres unmarked) [Example 142, 2-({[4-(2-Butynyloxy)phenyl]sulfonyl)(methyl)amino]-N-hydroxy-3 methyl-3-{[2-(diethylamino)ethyl]sulfanyl}butanamide] | – | 89 | –

From EP1144368B1, “ACETYLENIC ALPHA-AMINO ACID-BASED SULFONAMIDE HYDROXAMIC ACID TACE INHIBITORS” (priority 1999, dated 2000)
